Key:
human α7 nAChR = biological target: T1, human α7 nAChR (Homo sapiens, UniProt P36544); experiment: Evaluation of PAM activity with human α7 nACh receptor stably expressing cells (aequorin luminescence, FDSS7000); format: cell-based; details: ACh at EC20; for α7PAM (%) @ 10 μmol/L: test compound 10 μmol/L, ratio of RLU (Max-Min) of test-compound wells to control wells, human α7 nAChR expressing GH4C1 cells
T1 construct: expressed in transfected cells; host or cells: GH4C1 cells (rat pituitary, ATCC CCL-82.2)
Description: Evaluation of PAM Activity with Human α7 nACh Receptor Stably Expressing Cells
(1) Human α7 nAChR stably expressing cells
Human α7 nAChR stably expressing cells were generated and cultured. In detail, GH4C1 cells derived from rat pituitary (cat#CCL-82.2, ATCC, USA) were used as a host cell. PcDNA3.1Zeo vector containing a nucleotide sequence encoding a protein GenBank BAC81731 and pcDNA3.1 vector containing human α7 nAChR gene (cat#V790-20, invitrogen, Carlsbad, Calif., USA) were transfected to the cells to give aequorins and human α7 nAChR stably expressing cells respectively. The aequorins and human α7 nAChR stably expressing cells were screened with Zeocin (cat#R25001, invitrogen, Carlsbad, Calif., USA) and Geneticin (cat#10131-027, invitrogen, Carlsbad, Calif., USA) respectively.
The cells were cultured in F-10 Nutrient Mixture (Ham) medium (cat#11550-043, invitrogen, Carlsbad, Calif., USA) containing 2.5% fetal bovine serum (cat#2917354, ICN Biomedicals, Inc, USA), 15% inactivated horse serum (cat#26050-088, invitrogen, Carlsbad, Calif., USA), 1 μg/mL Geneticin, and 5 μg/mL Puromycin (cat#14861-84, invitrogen, Carlsbad, Calif., USA), in a Collagen Type 1-coated dish (cat#4030-010, iwaki, Tokyo, Japan). During the culture, the medium was replaced with fresh medium in every 2 to 3 days, and the cells were treated with TrypLE Express (cat#45604-021, invitrogen, Carlsbad, Calif., USA) to collect them in every 7 days. Thus, the cells were subcultured.
7 Days after subculturing, the cells were treated with TrypLE Express to collect them when they were about 80% confluent. The cells were suspended in a reaction medium containing Hanks (cat#14065-056, invitrogen, Carlsbad, Calif., USA)/20 mmol/L Hepes (cat#15630-080, invitrogen, Carlsbad, Calif., USA), Buffer (pH 7.4), F-10 Nutrient Mixture (Ham), and 0.1 mg/mL Geneticin, and the suspension was seeded in a 384-well plate (cat#781090, Greiner, Germany) at 20000 cells/25 μL per well.
On the next day after seeding, Viviren (cat#E649X, Promega, Madison, Wis., USA) was added to the medium so that the final concentration could be 4 μmol/L (15 μL/well). The plates were centrifuged and then placed in the dark for 4 hours at room temperature.
(2) Preparation of the Test Samples
Each of the test compounds was dissolved in DMSO to prepare each test sample at a concentration of 1000-fold the final concentration. To the solution was added Hanks/20 mM HEPES/0.2% BSA (cat#A3803, Sigma, St. Louis, Mo., USA), and the concentration was adjusted to 6-fold the final concentration.
(3) Evaluation of PAM Activity
FDSS7000 (Hamamatsu Photonics) was used to detect the luminescence signal evoked by α7 nAChR stimulation. The cells and a luminescent substrate were put on a plate, and the test sample was added thereto. […] After the addition of ACh, the luminescence signal (the central wavelength: 465 nm) was measured for 138 seconds to calculate RLU (Max-Min). The ratio of the RLU (Max-Min) of the test-compound-containing wells to that of the control wells was defined as PAM activity.

Slc: ddY mice = experiment: Novel object recognition test with mice (mORT); format: in vivo; details: 0.3 mg/kg, 1.0 mg/kg or 3 mg/kg
Method: Evaluation of Cognitive Function with Mice in Novel Object Recognition Test (Hereinafter, Referred to as “mORT”)
Slc: ddY mice (25 g to 30 g, male, Japan SLC) can be used in the novel object recognition test wherein the interval between the 1st trial (training) and the 2nd trial (test) correlates with the memory loss for the objects used in the 1st trial, and a significant memory-loss is observed when the 2nd trial is performed 24 hours after the 1st trial. According to the test mechanism, the present compounds were administered prior to the 1st trial, and the enhancement effect on memory in the 2nd trial was evaluated.

T1 sequence (P36544 23-502): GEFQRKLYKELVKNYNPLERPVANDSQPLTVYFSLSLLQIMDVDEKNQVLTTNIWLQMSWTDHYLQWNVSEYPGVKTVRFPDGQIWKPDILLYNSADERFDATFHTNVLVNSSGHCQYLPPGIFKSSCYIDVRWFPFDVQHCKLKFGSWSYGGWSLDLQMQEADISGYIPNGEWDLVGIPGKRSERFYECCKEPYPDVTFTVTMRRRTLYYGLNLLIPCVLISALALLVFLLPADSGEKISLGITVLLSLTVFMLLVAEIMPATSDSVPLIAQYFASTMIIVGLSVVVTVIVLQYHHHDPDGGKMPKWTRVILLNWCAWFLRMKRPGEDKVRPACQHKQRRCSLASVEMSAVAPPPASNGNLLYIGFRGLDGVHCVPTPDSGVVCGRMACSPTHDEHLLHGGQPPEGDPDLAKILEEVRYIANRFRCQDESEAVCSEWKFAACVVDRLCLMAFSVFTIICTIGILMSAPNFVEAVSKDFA

α7PAM (%) @ 10 μmol/L (human α7 nAChR) [%] | SMILES | efficacy at higher doses (Slc: ddY mice) | PAM activity for α7 nAChR (in words) (human α7 nAChR; ratio of RLU (Max-Min) of test wells to control wells)
1226 | CO[C@H]1CC[C@H](NC(=O)N2CCC(n3ncc4cc(C5CC5)ccc43)CC2)CC1 [Example 74, 4-(5-cyclopropyl-1H-indazol-1-yl)-N-(trans-4-methoxycyclohexyl)piperidine-1-carboxamide] | the efficacy did not decrease | –
1209 | CO[C@H]1CC[C@H](NC(=O)N2CCC(n3ncc4cc(C)ccc43)CC2)CC1 [Example 1, N-(trans-4-methoxycyclohexyl)-4-(5-methyl-1H-indazol-1-yl)piperidine-1-carboxamide] | the efficacy did not decrease | –
1467 | CCO[C@H]1CC[C@H](NC(=O)N2CCC(n3ncc4cc(C)ccc43)CC2)CC1 [Example 90, N-(trans-4-ethoxycyclohexyl)-4-(5-methyl-1H-indazol-1-yl)piperidine-1-carboxamide] | – | –
1093 | CCc1ccc2c(cnn2C2CCN(C(=O)NC3CCOCC3)CC2)c1OC [Example 275, 4-(5-ethyl-4-methoxy-1H-indazol-1-yl)-N-(tetrahydro-2H-pyran-4-yl)piperidine-1-carboxamide] | – | –
1576 | Cc1ccc2c(c1)c(C)nn2C1CCN(C(=O)NC2CCC(F)(F)CC2)CC1 [Example 45, N-(4,4-difluorocyclohexyl)-4-(3,5-dimethyl-1H-indazol-1-yl)piperidine-1-carboxamide] | – | –
410 | CCc1ccc2c(cnn2C2CCN(C(=O)C3CCOCC3)CC2)c1 [Example 111] | – | –
430 | COCCCc1ccc2c(cnn2C2CCN(C(=O)N[C@H]3CC[C@H](OC)CC3)CC2)c1 [Example 32] | – | –
– | CCOc1ccc2c(cnn2C2CCN(C(=O)NC3CCCC3)CC2)c1 [Example 17] | – | stronger PAM activity than others
